# Values quoted from earlier work, collected in patent US20260344672A1, “CROP ENHANCEMENT” (SYNGENTA CROP PROTECTION AG, priority 2023, published 2026).
# Tested on: plant
# Conditions: reported in the literature
Compound,early flowering and grain maturation,leaf area and plant height,photosynthetic capacity (plant greenness),root system and root hair development,tiller number and productivity,"plant health, tolerance to environmental stresses"
N#Cc1nn(-c2c(Cl)cc(C(F)(F)F)cc2Cl)c(N)c1[S+]([O-])C(F)(F)F (stereo not drawn) [fipronil],stimulate early flowering and grain maturation,increase leaf area and plant height,increase photosynthetic capacity (plant greenness),enhance overall root system and root hair development,increase tiller number and productivity,
COC(=O)N(OC)c1ccccc1COc1ccn(-c2ccc(Cl)cc2)n1 [pyraclostrobin],,,,,,improve plant health e.g. to improve the tolerance to environmental stresses
